Where “and” joins values, the source holds several entries; their conditions need not be identical. Equal entries are not always repeated.

For the assay, the system named is 967376-340-R-J2-PDC multicell spheroid viability. As to the kind of experiment: Anticancer human tumor 967376-340-R-J2-PDC patient-derived colon adenocarcinoma cell line growth inhibition [PI3K]. To be noted: for viability, T/C: stronger effect = lower value. From the text: Combinatorial screen of targeted agents with the PI3K inhibitors inavolisib, alpelisib, duvelisib, and copanlisib in multi-cell type tumor spheroids
A high-throughput screen of multi-cell type tumor spheroids was designed to identify active combinations of targeted small molecules and PI3K pathway inhibitors. Complex spheroids include a stromal component modeled by human endothelial cells (HUVEC) and fibroblasts modeled by human mesenchymal stem cells (MSCs). The concentration ranges selected for each drug and investigational agent were based upon clinically achievable concentrations if the clinical Cmax of the agent was known.
Compounds. The drugs and investigational agents: inavolisib (NSC800729), alpelisib (NSC765974), duvelisib (NSC772469), copanlisib (NSC816437), ipatasertib (NSC767898), afuresertib (NSC778305), talazoparib (NSC767125), sapanisertib (NSC764658), selumetinib (NSC741078), tovorafenib (DAY101, NSC766906), vemurafenib (NSC761431), ravoxertinib (NSC781343), sotorasib (NSC818433), MRTX1133 (NSC 836407), abemaciclib (NSC 768073), palbociclib (NSC758247), venetoclax (NSC 766270), SY5609 (NSC837396), enzalutamide (NSC755605), and darolutamide (NSC825331), were obtained from the National Cancer Institute (NCI) Developmental Therapeutics Program Chemical Repository. The FDA-approved anticancer drug set is available from the NCI Developmental Therapeutics Program. […] The stock solutions were prepared in dimethyl sulfoxide (DMSO, Sigma-Aldrich, St. Louis, MO, cat. D2650) at 800-fold the tested concentration and stored at -70 degrees C prior to their use. All drugs and investigational agents were tested over a range starting from a high concentration at or near the clinical Cmax and decreasing in half-log increments. If the clinical Cmax for an agent had not been determined, the highest concentration tested was 10 microM.
Cell Culture. All cells were maintained in an incubator at 37 degrees C and 5% CO2 with 95% humidity. The PDC lines were cultured according to standard operating procedures established by the NCI PDMR (https://pdmr.cancer.gov/sops/default.htm). All PDCs were thawed and cultured in Matrigel-coated flasks prepared with a working solution of 1X Ham's F-12 nutrient mix, without supplementation (Invitrogen, Waltham, MA, cat. 11765054), 100 U/mL penicillin-streptomycin (Invitrogen, cat. 15140122), and 2.5% Matrigel (Corning Inc., Corning, NY, cat. 354248) for the first three passages. The 354836-022-R-J1-PDC, 475296-252-R-J1-PDC, and 997726-040-R-J2-PDC lines were cultured in 6A media, which includes advanced DMEM/F-12 (Thermo Fisher Scientific, cat. 12634028), 10 mM HEPES (Thermo Fisher Scientific, cat. 15630080), 1X GlutaMAX supplement (Thermo Fisher Scientific, cat. 35050061), 0.1 mg/mL primocin (InvivoGen, San Diego, CA, cat. ant-pm-2), 10% defined fetal bovine serum, heat inactivated (HyClone Laboratories Inc., Logan, UT, cat. SH30070.03HI), 50% L-WRN conditioned media (ATCC, cat. CRL-3276), 1.25 mM N-Acetyl-L-cysteine (Sigma-Aldrich, cat. A9165), 10 mM nicotinamide (Sigma-Aldrich, cat. N0636), 1X B-27 supplement (Thermo Fisher Scientific, cat. 17504044), 1X N-2 supplement (Thermo Fisher Scientific, cat. 17502048), and 10 microM Y-27632 dihydrochloride (Tocris Bioscience, Bristol, United Kingdom, cat. 1254). The 624824-186-R-J2-PDC line was cultured in 6C/Colon 1B media, which includes all 6A media components plus 50 ng/mL human EGF recombinant protein (Thermo Fisher Scientific, cat. PHG0311). […]
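Also: spheroids exposed to agents for 7 days before read-out.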
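For viability, T/C in this document: luminescence used as surrogate of cell viability.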

The term viability, T/C denotes the result in the treated group divided by that in the control group, in per cent. By IC50 is commonly meant the concentration at which inhibition is half-maximal. As for `CNC(=O)c1ccc(N2C(=S)N(c3ccc(C#N)c(C(F)(F)F)c3)C(=O)C2(C)C)cc1F`, the viability, T/C was 94.8% (2×) and 84.5% and 88.3% (compound 0.1 µM); 96.1% [middle of 4 runs] (compound 0.316 µM); 87.2% [middle of 4 runs] (compound 1 µM); 102% [middle of 4 runs] (compound 10 µM). Besides, the 50% inhibitory concentration (IC50) (curve of compound) is greater than 10000 nM.

Turning to `C[C@@H](NC(=O)c1ncnc(N)c1Cl)c1ncc(C(=O)Nc2cc(C(F)(F)F)c(Cl)cn2)s1`, the viability, T/C reads like this: (compound 0.1 µM) 95.8% [middle of 4 runs]; (compound 0.316 µM) 94% [middle of 4 runs]; (compound 1 µM) 110% [middle of 4 runs]; (compound 3.16 µM) 107% [middle of 4 runs]; (compound 10 µM) 109% [middle of 4 runs]. For the same compound, the IC50 (curve of compound) was greater than 10000 nM.

As to `Cn1cnc2c(F)c(Nc3ccc(Br)cc3Cl)c(C(=O)NOCCO)cc21` + CC(Nc1ccc2c(c1)OCCn1cc(N3C(=O)OCC3C(F)F)nc1-2)C(N)=O, the IC50 runs as follows: (curve of first compound, second compound 0.00316 µM) 870 nM; (curve of first compound, second compound 0.01 µM) 564 nM; (curve of first compound, second compound 0.0316 µM) 461 nM; (curve of first compound, second compound 0.1 µM) 301 nM; (curve of first compound, second compound 0.316 µM) 15.7 nM; (curve of first compound, second compound 1 µM) less than 9.49 nM. Further, the viability, T/C reads like this: (second compound 0.00316 µM, first compound 0.00949 µM) 91.2%; (second compound 0.00316 µM, first compound 0.03 µM) 92.1%; (second compound 0.00316 µM, first compound 0.0949 µM) 92.5%; (second compound 0.00316 µM, first compound 0.3 µM) 67.9%; (second compound 0.00316 µM, first compound 0.949 µM) 50.5%; (second compound 0.00316 µM, first compound 3 µM) 22.7%. For the same compound, the viability, T/C reads like this: (second compound 0.01 µM, first compound 0.00949 µM) 96%; (second compound 0.01 µM, first compound 0.03 µM) 94%; (second compound 0.01 µM, first compound 0.0949 µM) 82.2%; (second compound 0.01 µM, first compound 0.3 µM) 72.2%; (second compound 0.01 µM, first compound 0.949 µM) 30.3%; (second compound 0.01 µM, first compound 3 µM) 31.6%. Moreover, the viability, T/C was 81.8% (second compound 0.0316 µM, first compound 0.00949 µM); 83.2% (second compound 0.0316 µM, first compound 0.03 µM); 58.3% (second compound 0.0316 µM, first compound 0.0949 µM); 55.5% (second compound 0.0316 µM, first compound 0.3 µM); 46.6% (second compound 0.0316 µM, first compound 0.949 µM); 20.1% (second compound 0.0316 µM, first compound 3 µM). Moreover, the viability, T/C by setting is: (second compound 0.1 µM, first compound 0.00949 µM) 66.2%; (second compound 0.1 µM, first compound 0.03 µM) 70.8%; (second compound 0.1 µM, first compound 0.0949 µM) 67.8%; (second compound 0.1 µM, first compound 0.3 µM) 49.5%; (second compound 0.1 µM, first compound 0.949 µM) 18.7%; (second compound 0.1 µM, first compound 3 µM) 8.2%. The viability, T/C was 48.2% (second compound 0.316 µM, first compound 0.00949 µM); 52.4% (second compound 0.316 µM, first compound 0.03 µM); 44.1% (second compound 0.316 µM, first compound 0.0949 µM); 27.8% (second compound 0.316 µM, first compound 0.3 µM); 23.7% (second compound 0.316 µM, first compound 0.949 µM); 6.33% (second compound 0.316 µM, first compound 3 µM). Moreover, the viability, T/C (second compound 1 µM, first compound 0.00949 µM) was 45.7%; the viability, T/C (second compound 1 µM, first compound 0.03 µM) is 51%; the viability, T/C (second compound 1 µM, first compound 0.0949 µM) is 31.3%; the viability, T/C (second compound 1 µM, first compound 0.3 µM) was 24.6%; the viability, T/C (second compound 1 µM, first compound 0.949 µM) is 9.79%; the viability, T/C (second compound 1 µM, first compound 3 µM) is 4.86%.

Values taken from PubChem BioAssay AID1963962 (Molecular Pharmacology Branch, DTP, NCI, 2024).
